Like-named read-outs stand apart in the source and are kept apart here.
Columns and labels:
T. rubrum IFM 59814 = assay: CLSI broth microdilution drug-sensitivity test; format: cell-based, Trichophyton rubrum
Method: (§1) The antimicrobial activity of the pharmaceutical composition for dermatomycosis according to the present invention was evaluated through drug-susceptibility tests against major pathogenic fungi performed in compliance with the guidelines of the Clinical Laboratory Standards Institute (CLSI), USA. The pathogenic fungi selected were genus Tricophyton (T. rubrum, T. mentagrophytes, T. tonsurans), genus Microsporum (M. gypseum), genus Epidermophyton (E. floccosum), genus Candida (C. albicans), genus Aspergillus (A. fumigatus), and genus Cryptococcus (C. neoformans). […] In the drug-susceptibility tests, Mg ions and Ca ions necessary for conidia (spores) of the fungus to germinate growth were included in the nutrient medium.
(§2) The antifungal activity of the compounds of the present invention was evaluated by performing drug-sensitivity tests against various pathogenic fungi. The testing method was a broth microdilution method in conformance with the guidelines of the Clinical Laboratory Standards Institute (CLSI), USA.

[1] = system: T. mentagrophytes IFM 59813; assay: CLSI broth microdilution drug-sensitivity test; format: cell-based, Trichophyton mentagrophytes
Method: as §1, §2

A. fumigatus IFM4942 = assay: CLSI broth microdilution drug-sensitivity test; format: cell-based
Method: as §1, §2

C. albicans IFM 5740 = assay: CLSI broth microdilution drug-sensitivity test; format: cell-based
Method: as §1, §2

C. neoformans IFM5807 = assay: CLSI broth microdilution drug-sensitivity test; format: cell-based
Method: as §1, §2

M. gypseum IFM 59816 = assay: CLSI broth microdilution drug-sensitivity test; format: cell-based
Method: as §1, §2

E. floccosum IFM 53345 = assay: CLSI broth microdilution drug-sensitivity test; format: cell-based, Epidermophyton floccosum
Method: as §1, §2

M. furfur = assay: Malassezia drug sensitivity test (Sugita et al., mLNA medium); format: cell-based
Method: as §1
(§3) The antifungal activity of the compounds of the present invention against Malassezia spp. was evaluated in drug sensitivity tests against human-related genus Malassezia species, performed in compliance with the methodology of Sugita et al. (2005). The test drug and mLNA nutrient medium were added to the wells of a 24-well microtiter plate with a total quantity of 2 mL. A 50 μL microbe suspension with a concentration of approximately 1×10^4 cell/mL was added to the medium, which was cultured aerobically for 7 days at 32° C. In comparison to the control (no test drug), the density required to completely prevent growth was set as the minimum inhibitory concentration (MIC).

tinea corporis = assay: Topical treatment of tinea corporis, case reports; format: in vivo, humans; conditions: for healing of tinea corporis: Example 10: 0.01% test solutions
Excerpt: (§4) The compounds of the present invention were investigated with respect to the treatment of dermatomycosis affecting humans. […] The cases of tinea used in the investigation involved selection of various types of tinea such as vesicular-type tinea, interdigital-type tinea, hyperkeratotic tinea, tinea corporis, tinea unguium, etc.
(§5) The dermatophytes that cause dermatophytosis, a typical form of dermatomycosis, are mainly Trichophyton rubrum and Trichophyton mentagrophytes. […] This confirmation of dermatophytes involved planting a sample of skin or nail of an area affected with tinea in a Candida nutrient medium (Nissui Pharmaceutical Co., Ltd.), isolating the dermatophytes that grow, and then confirming the dermatophytes through gene analysis or observation of morphology. A more detailed description of the fungus identification is provided in the examples.
A 1% test solution of ethylenediaminetetraacetic acid trisodium salt prepared in the same manner as Example 6 was applied by spraying once a day onto an area, approximately 5 cm wide and 3 cm long, of a chest affected by tinea corporis, which was denoted by flaring redness.
To 119 mg of ethylenediaminetetraacetic acid tetrasodium salt tetrahydrate was added 20% ethanol to prepare 1 L of 0.01% test solution. This test solution was applied by spraying, three times a day, to tinea corporis denoted by red flaring ridges that had occurred on the thigh.

tinea unguium = assay: Treatment of tinea unguium, case reports; format: in vivo, humans
interdigital tinea = conditions: Example 7: 2% test solution sprayed once daily between toes; Trichophyton rubrum
M. globosa = assay: microbe, parasite or virus in culture; conditions: Malassezia globosa, 168 h
Method: as §1
as §3, with “In comparison to the control (no test drug), the density required to completely prevent growth was set as the minimum inhibitory concentration (MIC).” left out

M. dermatitis = assay: organism not typed; conditions: 168 h
Method: as §1, §3

M. japonica = assay: organism not typed; conditions: 168 h
Method: as §1, §3

M. obtusa = assay: organism not typed; conditions: 168 h
Method: as §1, §3

M. restricta = assay: organism not typed; conditions: 168 h
Method: as §1, §3

M. slooffiae = assay: organism not typed; conditions: 168 h
Method: as §1, §3

M. sympodialis = assay: organism not typed; conditions: 168 h
Method: as §1, §3

M. yamatoensis = assay: organism not typed; conditions: 168 h
Method: as §1, §3

hyperkeratotic tinea = assay: Topical treatment of hyperkeratotic tinea, case reports; format: in vivo, humans
Excerpt: as §4, §5

tinea glabrosa = assay: Topical treatment of tinea glabrosa, case reports; format: in vivo, humans
Method: Dermatomycosis includes dermatophytosis, cutaneous candidiasis, and malasseziosis. As time progresses with these diseases, a variety of fungi will parasitize the site.
To 2.4 g of calcium benzoate trihydrate was added water to prepare 200 g of a 1% test solution. This solution was atomized twice a day for tinea glabrosa denoted by redness on the abdominal region.
This red papule was treated twice a day with a 2% solution of ethylenediaminetetraacetic acid trisodium salt prepared in the same manner as in Example 5.

Malassezia infection = conditions: Example 14: 1% test solution applied twice a day, lower-left abdomen
[2] = JECFA evaluation of food additives; cited from earlier work
[3] = Trichophyton mentagrophytes, IFM59813
[4] = Cryptococcus neoformans, IFM5807
[5] = Epidermophyton floccosum, IFM53345
[6] = Example 11: 2% test solution, big toe immersed in fingerstall, Trichophyton rubrum
[7] = T. mentagrophytes IFM 59813, broth microdilution

Excerpt for small red papules: Dermatophyte was isolated from the papules in this case, and was confirmed through gene analysis to be Trichophyton mentagrophytes.

C/C=C/C=C/C(=O)[O-].[K+] [potassium sorbate]
MIC (T. rubrum IFM 59814; Trichophyton rubrum, IFM59814): 780 µg/mL | MIC [1, 3]: 390 µg/mL | MIC (A. fumigatus IFM4942; Aspergillus fumigatus, IFM4942): 780 µg/mL | MIC (C. albicans IFM 5740; Candida albicans, IFM5740): 3100 µg/mL | MIC (C. neoformans IFM5807; [4]): 200 µg/mL | MIC (M. gypseum IFM 59816; Nannizzia gypsea, IFM59816): 780 µg/mL | MIC (E. floccosum IFM 53345; [5]): 200 µg/mL | MIC (M. furfur; Malassezia furfur, 168 h): 310 µg/mL | healing of tinea corporis (tinea corporis): heal tinea corporis | time until healthy nail regained (tinea unguium; Example 13: 1% test solution (1% glycerin, 15% ethanol), big-toe toenail immersed 1 hour a day): about 9 months

O=C([O-])CN(CCN(CC(=O)[O-])CC(=O)[O-])CC(=O)[O-].[Mg+2].[Na+].[Na+] [ethylenediaminetetraacetic acid magnesium disodium salt]
MIC [1, 3]: 78 µg/mL

O=C([O-])CN(CCN(CC(=O)[O-])CC(=O)[O-])CC(=O)[O-].[Na+].[Na+].[Na+].[Na+] [ethylenediaminetetraacetic acid tetrasodium salt]
MIC [1, 3]: 39 µg/mL | time until redness disappeared (tinea cured) (tinea corporis; Example 10: 0.01% test solution in 20% ethanol sprayed three times a day, thigh): approximately 2 weeks | time until healthy nail grew from the nail base (tinea unguium; [6]): approximately 2 months | time until recovery complete with a healthy nail (tinea unguium; [6]): 6 months | time until skin symptoms disappeared and healthy skin returned (interdigital tinea): approximately 2 months

O=C([O-])CN(CCN(CC(=O)[O-])CC(=O)O)CC(=O)[O-].[Na+].[Na+].[Na+] [ethylenediaminetetraacetic acid trisodium salt]
MIC (T. rubrum IFM 59814; Trichophyton rubrum, IFM59814): 39 µg/mL | MIC [1, 3]: 78 µg/mL | MIC (A. fumigatus IFM4942; Aspergillus fumigatus, IFM4942): 9.8 µg/mL | MIC (C. albicans IFM 5740; Candida albicans, IFM5740): 0.2 µg/mL | MIC (C. neoformans IFM5807; [4]): 9.8 µg/mL | MIC (M. gypseum IFM 59816; Nannizzia gypsea, IFM59816): 78 µg/mL | MIC (E. floccosum IFM 53345; [5]): 78 µg/mL | MIC (M. furfur; Malassezia furfur, 168 h): 63 µg/mL | MIC (M. globosa): 63 µg/mL | MIC (M. dermatitis): 31 µg/mL | MIC (M. japonica): 63 µg/mL | MIC (M. obtusa): 31 µg/mL | MIC (M. restricta): 31 µg/mL | MIC (M. slooffiae): 63 µg/mL | MIC (M. sympodialis): 63 µg/mL | MIC (M. yamatoensis): 63 µg/mL | time until hyperkeratotic-type tinea eliminated and clean skin recovered (hyperkeratotic tinea; Example 5: 2% test solution (glycerin, 15% ethanol), sprayed twice daily, sole of foot, T. mentagrophytes and Candida isolated): approximately 2 months | time until tinea eliminated and healthy skin returned (hyperkeratotic tinea; Example 6: 1% test solution, foot immersed 1 hour a day): about one and a half | time until infected area entirely replaced by healthy skin (hyperkeratotic tinea; Example 17: 2% test solution sprayed twice a day, base of toes to arch, Trichophyton rubrum): approximately 6 months | time until complete recovery of healthy skin (hyperkeratotic tinea; Example 21: 5% test solution sprayed twice a day, left and right heels, Trichophyton rubrum): 3 months | time until red flaring disappeared and healthy skin returned (tinea corporis; Example 8: 1% test solution sprayed once a day, chest, Trichophyton mentagrophytes): approximately 2 weeks | time until skin symptoms disappeared or cicatrized (tinea corporis healed) (tinea corporis; Example 9: 1% test solution sprayed once a day, left thigh, considered M. canis): approximately one | healing of tinea corporis (tinea corporis): heal tinea corporis | time until healthy skin and nail recovered (tinea unguium; Example 12: 2% test solution, little finger soaked in fingerstall at bedtime, T. mentagrophytes and Candida): 2 months | outcome of tinea unguium treatment (tinea unguium; Example 16: 2% test solution sprayed twice a day, big-toe toenail refractory to oral Itrizole): curing the tinea | time until tinea unguium cured (tinea unguium; Example 20: 3% test solution sprayed twice a day, little-toe toenail, Trichophyton rubrum): approximately 8 months | time until healthy nail recovered (tinea unguium; Example 22: 10% test solution in water applied once a day, right thumb nail, Trichophyton rubrum): about one | time until healthy nail restored (tinea unguium; Example 23: 20% test solution (glycerin, water) applied twice a day, right thumbnail, Trichophyton rubrum): about 1 year | time until red papules cured completely (tinea glabrosa; Example 23: 2% solution once or twice a day, thigh, abdomen, breast or back, Aspergillus tubingensis, Basidiomycete and other fungi): 1-2 weeks | time until complete cure of red papule (tinea glabrosa; Example 23: 2% solution twice a day, back of head, Aspergillus japonicus): two | time until light-brown area disappeared (Malassezia infection): approximately 3 weeks | time until papules disappeared, completely healed (small red papules; Example 18: 2% test solution sprayed twice a day, scalp at back of head): 2 weeks | time until papules disappeared, completely healed (small red papules; Example 19: 2% test solution sprayed twice a day, back of right thigh, Trichophyton mentagrophytes): 10 days

O=C([O-])CN(CCN(CC(=O)O)CC(=O)O)CC(=O)[O-].[Na+].[Na+] [ethylenediaminetetraacetic acid disodium salt]
MIC [1, 3]: 78 µg/mL | healing of tinea corporis (tinea corporis): heal tinea corporis | permissible daily intake [2]: ≤ 2.5 mg per 1 kg of body weight

CCC(C)n1ncn(-c2ccc(N3CCN(c4ccc(OCC5COC(Cn6cncn6)(c6ccc(Cl)cc6Cl)O5)cc4)CC3)cc2)c1=O (stereo not drawn) [Itrizole, reference compound]
outcome of oral therapy of tinea unguium (tinea unguium; Example 16: oral therapy, left-foot big-toe toenail): ineffective

C/C=C/C=C/C(=O)[O-].[Na+] [sodium sorbate]
MIC ([1]; Trichophyton mentagrophytes, IFM59813, T. mentagrophytes IFM 59813, broth microdilution, read-out: MIC): 780 µg/mL

O=C([O-])c1ccccc1.O=C([O-])c1ccccc1.[Mg+2] [magnesium benzoate]
MIC [1, 7]: 780 µg/mL

O=C([O-])c1ccccc1.[K+] [potassium benzoate]
MIC [1, 7]: 780 µg/mL

O=C([O-])CN(CCN(CC(=O)[O-])CC(=O)O)CC(=O)[O-].[K+].[K+].[K+] [ethylenediaminetetraacetic acid tripotassium salt]
MIC [1, 3]: 78 µg/mL

O=C([O-])c1ccccc1.[Na+] [sodium benzoate]
MIC (T. rubrum IFM 59814; T. rubrum IFM 59814, broth microdilution): 390 µg/mL | MIC [1, 7]: 200 µg/mL | MIC (A. fumigatus IFM4942; A. fumigatus IFM4942, broth microdilution): 3100 µg/mL | MIC (C. albicans IFM 5740; C. albicans IFM 5740, broth microdilution): 6300 µg/mL | MIC (C. neoformans IFM5807; C. neoformans IFM5807, broth microdilution): 1600 µg/mL | MIC (M. gypseum IFM 59816; M. gypseum IFM 59816, broth microdilution): 1600 µg/mL | MIC (E. floccosum IFM 53345; E. floccosum IFM 53345, broth microdilution): 200 µg/mL | MIC (M. furfur; M. furfur, 7 days at 32° C., complete prevention of growth): 310 µg/mL | healing of tinea corporis (tinea corporis): heal tinea corporis | time until healthy nail restored (tinea unguium; Example 13: 1% test solution in 20% ethanol, thumb nail soaked in fingerstall one day, 10 times): about 3 months

O=C([O-])c1ccccc1.O=C([O-])c1ccccc1.[Ca+2] [calcium benzoate]
curative effect against tinea of the skin (tinea glabrosa; 1% aqueous solution (Example 15)): showed a curative effect | time until skin symptoms disappeared (tinea eliminated) (tinea glabrosa; Example 15: 1% test solution in water atomized twice a day, abdominal region): about two

From US20150196520A1, “METHOD AND PHARMACEUTICAL COMPOSITION FOR TREATING DERMATOPHYTOSIS” (priority 2012, published 2015)
